Laboratory results published in patent US20220323429A1, “PIMAVANSERIN FOR TREATING NEURODEGENERATIVE DISEASES” (ACADIA Pharmaceuticals Inc., priority 2019, published 2022).

Experiment: Assay from diluted impurity samples (mass balance), in-use stability
Type: physicochemical
Conditions: for Assay (%) from diluted impurity sample: ambient; for Absolute Difference from Time 0 (%): diluted impurity sample
Experimental: Analytical HPLC Stability Study experiments (Example 1) were performed on Agilent 1200 Series, or equivalent; Waters XBridge C18 column, 5 μm 150×4.6 mm; mobile phase: Solvent A: 50 mM ammonium bicarbonate, pH 8.0; Solvent B: acetonitrile/methanol, 80:20 (v/v); Flow rate: 1 mL/min; Inj. Volume 20 μL; Autosampler Temp. 5° C.; column temperature: 40° C., detection UV at 210 nm; sample concentration (as free base) assay: 0.068 mg/mL, impurity: 0.68 mg/mL; standard concentration (as free base) 0.068 mg/mL; PLOQ Std. 0.05% of 0.68 mg/mL; SST solution, 1% of 0.68 mg/mL (impurities A, C, D, E, F, and G); diluent for standards 80/20 (v/v) ethanol/water; diluent for samples, ethanol; run time 40 min; gradient method: 0 min mobile phase A (90%) and mobile phase B (10%) to 30 min mobile phase A (0%), and mobile phase B (100%); then 30.1 min to 40 min mobile phase A (90%), mobile phase B (10%).
For each sample, one capsule was weighed, and the content of each capsule was dropped into a 50 mL volumetric flask and the empty capsule shell was weighed and discarded. The specified amount of each vehicle was added as specified in Table 3, below.
The flasks were gently swirled to ensure the capsule contents were visually incorporated with the vehicle. The flasks were kept on the bench at ambient temperature for each time point: 2, 4, and 24 hours. Time 0 samples were processed immediately. At the specified time point a stir bar and approximately 45 mL of diluent were added to the flask. The solution was stirred vigorously for 2 hours, and the flask was left on the bench overnight. The next day the flasks were sonicated for approximately 30 minutes. The stir bar was removed and rinsed carefully with diluent into the flask, and the flask was diluted to volume with diluent and mixed well by inversion. An aliquot of each solution was centrifuged for 5 minutes at 10000 rpm. The supernatant was transferred to a HPLC vial, and injected for analysis.
Samples were prepared by transferring the stock volume using a volumetric pipet into a 20 mL volumetric flask, diluted to volume with diluent, and mixed well by inversion. An aliquot of each solution was centrifuged for 5 minutes at 10000 rpm. The supernatant was transferred to a HPLC vial and injected for analysis.

- Assay (%) from diluted impurity sample (Ensure 5 mL, T = 0): 97.1%
- Assay (%) from diluted impurity sample (Ensure 5 mL, T = 2 h): 94.6%
- Assay (%) from diluted impurity sample (Ensure 5 mL, T = 4 h): 97.9%
- Assay (%) from diluted impurity sample (Ensure 5 mL, T = 24 h): 97.3%
- Absolute Difference from Time 0 (%) (Ensure, T = 0): 2.9%
- Absolute Difference from Time 0 (%) (Ensure, T = 2 h): 5.4%
- Absolute Difference from Time 0 (%) (Ensure, T = 4 h): 2.1%
- Absolute Difference from Time 0 (%) (Ensure, T = 24 h): 2.7%
- Assay (%) from diluted impurity sample (applesauce 5 g, T = 0): 97.5%
- Assay (%) from diluted impurity sample (applesauce 5 g, T = 2 h): 99.4%
- Assay (%) from diluted impurity sample (applesauce 5 g, T = 4 h): 104.1%
- Assay (%) from diluted impurity sample (applesauce 5 g, T = 24 h): 99.5%
- Absolute Difference from Time 0 (%) (applesauce, T = 0): 4.4%
- Absolute Difference from Time 0 (%) (applesauce, T = 2 h): 2.5%
- Absolute Difference from Time 0 (%) (applesauce, T = 4 h): 2.2%
- Absolute Difference from Time 0 (%) (applesauce, T = 24 h): 2.4%
- assay results difference from time 0 (diluted impurity samples, all vehicles and times): ≤ 5%
- Assay (%) from diluted impurity sample (orange juice 5 mL, T = 0): 97.7%
- Assay (%) from diluted impurity sample (orange juice 5 mL, T = 2 h): 97.5%
- Assay (%) from diluted impurity sample (orange juice 5 mL, T = 4 h): 96.4%
- Assay (%) from diluted impurity sample (orange juice 5 mL, T = 24 h): 99.2%
- Absolute Difference from Time 0 (%) (orange juice, T = 0): 2.6%
- Absolute Difference from Time 0 (%) (orange juice, T = 2 h): 2.8%
- Absolute Difference from Time 0 (%) (orange juice, T = 4 h): 3.9%
- Absolute Difference from Time 0 (%) (orange juice, T = 24 h): 1.1%
- Assay (%) from diluted impurity sample (water 5 mL, T = 0): 95.6%
- Assay (%) from diluted impurity sample (water 5 mL, T = 2 h): 98.2%
- Assay (%) from diluted impurity sample (water 5 mL, T = 4 h): 97.1%
- Assay (%) from diluted impurity sample (water 5 mL, T = 24 h): 97.5%
- Absolute Difference from Time 0 (%) (water, T = 0): 3.3%
- Absolute Difference from Time 0 (%) (water, T = 2 h): 0.7%
- Absolute Difference from Time 0 (%) (water, T = 4 h): 1.8%
- Absolute Difference from Time 0 (%) (water, T = 24 h): 1.4%
SMILES: CC(C)COc1ccc(CNC(=O)N(Cc2ccc(F)cc2)C2CCN(C)CC2)cc1 [Pimavanserin, N-(4-Fluorophenylmethyl)-N-(1-methylpiperidin-4-yl)-N′-(4-(2-methylpropyloxy)phenylmethyl)carbamide]
